In assay [1] the target is T1, Mitogen-activated protein kinase 8 (Homo sapiens, UniProt P45983). The assay is described as follows: DELFIA Assay (Dissociation Enhanced Lanthanide Fluoro-Immuno Assay).
Assay [2] concerns the target T1, Mitogen-activated protein kinase 8. The assay can be described thus: In Vitro Kinase Assay (LanthaScreen Kinase Assay). The method, then:
Compounds were tested for their ability to inhibit JNK1 phosphorylation of ATF2 in the Time-Resolved Fluorescence Resonance Energy Transfer (TR-FRET) based LanthaScreen kinase assay (Invitrogen). The signal was measured at 520/495 nm emission ratio on a fluorescence plate reader (Victor 2, Perkin-Elmer).
Background: Time-resolved FRET reads energy transfer from a long-lived donor to a nearby acceptor.

T1 sequence (P45983 whole entry): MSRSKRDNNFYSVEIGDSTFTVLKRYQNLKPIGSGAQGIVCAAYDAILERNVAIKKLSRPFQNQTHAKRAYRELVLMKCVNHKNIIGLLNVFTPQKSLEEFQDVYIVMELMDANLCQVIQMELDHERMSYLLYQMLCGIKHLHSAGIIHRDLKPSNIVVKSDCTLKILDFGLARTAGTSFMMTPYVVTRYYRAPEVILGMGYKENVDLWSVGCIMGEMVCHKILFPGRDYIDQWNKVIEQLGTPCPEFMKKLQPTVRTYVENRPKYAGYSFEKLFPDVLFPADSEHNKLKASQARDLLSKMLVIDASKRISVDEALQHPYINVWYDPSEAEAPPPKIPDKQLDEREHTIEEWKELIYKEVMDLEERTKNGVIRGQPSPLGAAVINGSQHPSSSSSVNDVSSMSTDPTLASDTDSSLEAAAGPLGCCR

The IC50 is the concentration that inhibits the measured activity by half. Take `Nc1nnc(Sc2ncc([N+](=O)[O-])s2)s1` [2-amino-1,3,4-thiadiazole, 9]: the IC50 in assay [1] was found to be 239 nM; in assay [2], 700 nM.
Turning to `O=C(Nc1nnc(Sc2ncc([N+](=O)[O-])s2)s1)c1ccc(F)cc1` [2-amino-1,3,4-thiadiazole, 10], half-maximal inhibition in assay [2] (IC50) was put at 84000 nM.
The same measure, in the same setting: to `c1ccc(CSc2nnc(SCc3ccccc3)s2)cc1` [dithioether 1,3,4-thiadiazole, 8a] belongs more than 100000 nM; to `Fc1ccc(CSc2nnc(SCc3ccc(F)cc3)s2)cc1` [dithioether 1,3,4-thiadiazole, 8b], more than 100000 nM; to `COc1ccc(CSc2nnc(SCc3ccc(OC)cc3)s2)cc1` [dithioether 1,3,4-thiadiazole, 8c], more than 100000 nM.
Still for that read-out and setting: with `O=[N+]([O-])c1cccc(CSc2nnc(SCc3cccc([N+](=O)[O-])c3)s2)c1` [dithioether 1,3,4-thiadiazole, 8d] the figure was more than 100000 nM; with `O=[N+]([O-])c1ccc(CSc2nnc(SCc3ccc([N+](=O)[O-])cc3)s2)cc1` [dithioether 1,3,4-thiadiazole, 8e], more than 100000 nM.
Take `O=[N+]([O-])c1cnc(Sc2nnc(Sc3ncc([N+](=O)[O-])s3)s2)s1` [dithioether 1,3,4-thiadiazole, 8f]: the IC50 in assay [1] turned out to be 187 nM; in assay [2], 800 nM.
`O=C(O)c1cnc(Sc2nnc(Sc3ncc(C(=O)O)s3)s2)s1` [dithioether 1,3,4-thiadiazole, 8g]: the IC50 in assay [1] was determined as 100 nM; in assay [2] it was 84000 nM.
`CC(C)(C)c1ccc(-n2c(O)nnc2Sc2ncc([N+](=O)[O-])s2)cc1` [triazole, 3a]: the IC50 came out at 39000 nM in assay [1] and 95 nM in assay [1] (pH 7.8, 0 °C).
`O=c1[nH]nc(Sc2ncc([N+](=O)[O-])s2)n1-c1ccc(F)cc1` [triazole, 3c]: the IC50 was determined as 1800 nM in assay [1] and 225 nM in assay [1] (pH 7.8, 0 °C).
For `COc1cc(OC)cc(-n2c(Sc3ncc([N+](=O)[O-])s3)n[nH]c2=O)c1` [triazole, 3e], in that order: 4300 nM and 105 nM.
For `COc1ccc(-n2c(Sc3ncc([N+](=O)[O-])s3)n[nH]c2=O)cc1OC` [triazole, 3f] the same measures were 1000 nM and 43 nM.
For `O=[N+]([O-])c1cnc(Sc2nnc(O)n2-c2cccc3ccccc23)s1` [triazole, 3g] the same measures were 2700 nM and 48 nM.
Turning to `COc1ccc(OC)c(-n2c(Sc3ncc([N+](=O)[O-])s3)n[nH]c2=O)c1` [triazole, 3h], the IC50 in assay [1] was 2400 nM; in assay [1] (pH 7.8, 0 °C), 85 nM.
With `O=c1[nH]nc(Sc2ncc([N+](=O)[O-])s2)n1-c1ccc(OC(F)(F)F)cc1` [triazole, 3i], the IC50 in assay [1] turned out to be 2000 nM; in assay [1] (pH 7.8, 0 °C) it was 130 nM.
For `O=c1[nH]nc(Sc2ncc([N+](=O)[O-])s2)n1-c1ccc([N+](=O)[O-])cc1` [triazole, 3j] the same measures were 400 nM and 86 nM.
In the case of `O=[N+]([O-])c1cnc(Sc2nnc(O)n2-c2ccc(F)c(F)c2)s1` [triazole, 3k], the IC50 in assay [1] is 6600 nM.
`O=c1[nH]nc(Sc2ncc([N+](=O)[O-])s2)n1-c1cccc(F)c1` [triazole, 3l]: the IC50 in assay [1] stood at 84000 nM; in assay [1] (pH 7.8, 0 °C), 626 nM.
For `COc1cccc(-n2c(O)nnc2Sc2ncc([N+](=O)[O-])s2)c1` [triazole, 3m] the same measures were 16000 nM and 118 nM.
Consider `O=[N+]([O-])c1cnc(Sc2nnc(O)n2-c2cccc(C(F)(F)F)c2)s1` [triazole, 3o], for which the IC50 in assay [1] worked out at 2900 nM; in assay [1] (pH 7.8, 0 °C) it was 160 nM.
Consider `O=[N+]([O-])c1cnc(Sc2nnc(O)n2-c2ccc(C(F)(F)F)cc2)s1` [triazole, 3p], for which the IC50 in assay [1] amounted to 3000 nM; in assay [1] (pH 7.8, 0 °C), 75 nM.
`O=[N+]([O-])c1cnc(Sc2nnc(O)n2C2CCCCC2)s1` [triazole, 3q]: the half-maximal inhibitory concentration (IC50) in assay [1] was 25000 nM; in assay [1] (pH 7.8, 0 °C), 56 nM.
As for `Cn1cccc1-c1nnc(Sc2ncc([N+](=O)[O-])s2)n1-c1ccc(Cl)cc1Cl` [triazole, 7b], the IC50 in assay [1] amounted to 2000 nM; in assay [1] (pH 7.8, 0 °C) it was 83 nM.
For `O=[N+]([O-])c1cnc(Sc2nnc(-c3cccc4ccccc34)n2Cc2ccco2)s1` [triazole, 7d] the same measures were 13600 nM and 57 nM.
For `O=[N+]([O-])c1cnc(Sc2nnc(-c3ccncc3)n2-c2ccccc2)s1` [triazole, 7f] the same measures were 3100 nM and 122 nM.
Regarding `Cn1c(Cc2nc(-c3cnccn3)[n-][o+]2)nnc1Sc1ncc([N+](=O)[O-])s1` [triazole, 7g], the IC50 stood at 100000 nM in assay [1] and 131 nM in assay [1] (pH 7.8, 0 °C).

The values above are taken from BindingDB's records for doi:10.1021/jm801503n (Burnham Institute For Medical Research, 2009).
